Patent US11136311B2, “Heteroaromatic derivatives as NIK inhibitors” (Janssen Pharmaceutica NV, priority 2016, dated 2021)
Like-named read-outs stand apart in the source and are kept apart here.

Columns and labels:
JJN-3 cells = assay: Antiproliferative activity on JJN-3 (NIK translocated) multiple myeloma cells (CellTiter-Glo); type: cell-based, human; settings: read-out: JJN-3 Proliferation inhibition (IC50 (nM))
Procedure, shortened: (§1)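 Viability was read by CellTiter-Glo after 96 hr compound exposure (9-point, 1:3 serial dilutions; 0.3% DMSO final). JJN-3 and KMS12-BM cells were seeded at 15000 and 20000 per well respectively in RPMI 1640/10% FCS; blank-subtracted signals were given as percent of drug-free controls.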

[1] = target: recombinant human NF-kappaB-inducing kinase (NIK/MAP3K14) (Homo sapiens (Human), UniProt Q99558); assay: Inhibition of auto-phosphorylation of recombinant human NIK/MAP3K14 activity (AlphaScreen); type: biochemical; settings: averaged values over all measurements on all batches
recombinant human NF-kappaB-inducing kinase (NIK/MAP3K14), sequence (Q99558 whole entry): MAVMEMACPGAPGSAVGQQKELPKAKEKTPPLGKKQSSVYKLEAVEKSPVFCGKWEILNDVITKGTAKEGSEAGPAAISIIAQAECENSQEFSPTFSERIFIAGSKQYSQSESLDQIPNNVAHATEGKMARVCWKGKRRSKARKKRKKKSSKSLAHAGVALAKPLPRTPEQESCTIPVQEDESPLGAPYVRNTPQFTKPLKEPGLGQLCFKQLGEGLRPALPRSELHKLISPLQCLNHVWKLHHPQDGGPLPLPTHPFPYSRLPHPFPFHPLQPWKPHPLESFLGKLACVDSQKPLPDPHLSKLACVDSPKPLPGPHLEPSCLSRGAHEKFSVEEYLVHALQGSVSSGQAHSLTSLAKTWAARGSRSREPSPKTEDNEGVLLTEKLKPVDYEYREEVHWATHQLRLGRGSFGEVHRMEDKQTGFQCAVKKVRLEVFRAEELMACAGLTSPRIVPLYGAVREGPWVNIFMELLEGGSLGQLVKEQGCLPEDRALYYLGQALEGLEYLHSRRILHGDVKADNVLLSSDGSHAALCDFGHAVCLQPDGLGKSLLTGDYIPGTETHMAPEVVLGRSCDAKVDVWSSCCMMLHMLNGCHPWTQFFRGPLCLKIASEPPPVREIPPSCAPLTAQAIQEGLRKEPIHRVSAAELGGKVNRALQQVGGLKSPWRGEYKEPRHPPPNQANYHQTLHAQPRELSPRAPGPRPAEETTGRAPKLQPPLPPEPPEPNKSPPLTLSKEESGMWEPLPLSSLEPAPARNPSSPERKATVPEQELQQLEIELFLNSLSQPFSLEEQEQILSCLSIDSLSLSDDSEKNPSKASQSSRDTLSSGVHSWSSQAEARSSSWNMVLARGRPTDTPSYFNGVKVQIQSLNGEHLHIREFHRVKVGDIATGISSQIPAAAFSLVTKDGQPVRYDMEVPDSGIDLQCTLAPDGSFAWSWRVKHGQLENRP
Procedure, shortened: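 AlphaScreen read-out, using anti-phospho-IKK Ser176/180 antibody, tracked NIK autophosphorylation after 1 h at 25° C. Reactions held 0.2 nM GST-NIK, 25 microM ATP and compound in 1% DMSO, Tris pH 7.5 buffer. IC50 fitted sigmoidally to blank-subtracted inhibition data.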

[2] = tested on: P-IKKα levels in L363 cells; assay: Effect of compounds on P-IKKα levels in L363 (NIK translocated multiple myeloma) cells; type: cell-based, human
Procedure, shortened: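 L363 myeloma cells were primed 24 h with BAFF, then treated 2 h with compound (8-point, 1:3 dilutions, 1% DMSO) at 37°C. P-IKKα in lysates was measured by Mesoscale sandwich immunoassay, with the full-inhibition blank subtracted. IC50 came from a sigmoidal fit of % inhibition of control against log concentration.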

KMS12-BM cells = assay: Antiproliferative activity on KMS12-BM (NIK WT) multiple myeloma cells (CellTiter-Glo); type: cell-based, human; settings: read-out: KMS-12 Proliferation inhibition (IC50 (nM))
Procedure, shortened: as §1

[3] = Homo sapiens, JJN-3, 96 h, JJN-3 (NIK translocated) cells, 96 hr, averaged values
[4] = Homo sapiens, L-363, L363 cells, averaged values, read-out: Inhibition of pIKKα_L-363 (IC50 (nM))
[5] = Homo sapiens, KMS-12-BM, 96 h, KMS12-BM (NIK WT) cells, 96 hr, averaged values

Row | IC50 (JJN-3 cells; [3]) | IC50 [1] | IC50 [2, 4] | IC50 (KMS12-BM cells; [5]) | SMILES | IC50 (JJN-3 cells; Homo sapiens, JJN-3, 96 h) | IC50 ([2]; Homo sapiens, L-363, read-out: Inhibition of pIKKα_L-363 (IC50 (nM))) | IC50 (KMS12-BM cells; Homo sapiens, KMS-12-BM, 96 h) | IC50 (JJN-3 cells; JJN-3 (NIK translocated) cells, 96 hr, averaged values) | IC50 ([2]; L363 cells, averaged values, read-out: Inhibition of pIKKα_L-363 (IC50 (nM))) | IC50 (KMS12-BM cells; KMS12-BM (NIK WT) cells, 96 hr, averaged values)
1 | 138 nM | 2.9 nM | 4 nM | ~8130 nM | CC(C)Oc1nn(CC(F)F)cc1Nc1nccc(-c2cc(C#N)c3c(c2)[C@@](C)(CO)CN3)n1 [Compound 188] | – | – | – | – | – | –
2 | 91 nM | 8.1 nM | 6 nM | > 10000 nM | Cn1ncc(Nc2nccc(-c3cc(C#N)c4c(c3)[C@@](C)(CO)CN4)n2)c1OC1CC1 [Compound 192] | – | – | – | – | – | –
3 | 407 nM | 3.1 nM | 29 nM | > 10000 nM | CC(C)Oc1c(Nc2nccc(-c3cc(C#N)c4c(c3)[C@@](C)(CO)CN4)n2)cnn1C [Compound 194] | – | – | – | – | – | –
4 | 158 nM | 4.9 nM | 1 nM | > 10000 nM | CNC(=O)c1cc(Nc2nccc(-c3cc(C#N)c4c(c3)[C@@](C)(CO)CN4)n2)nn1C1CCCC1 [Compound 195] | – | – | – | – | – | –
5 | 554 nM | 8.3 nM | 36 nM | 5250 nM | CNC(=O)c1cc(Nc2nccc(-c3cc(C#N)c4c(c3)[C@@](C)(CO)CN4)n2)n(C2CCCC2)n1 [Compound 196] | – | – | – | – | – | –
6 | 204 nM | 2.1 nM | 4 nM | ~2240 nM | CNC(=O)c1cc(Nc2nccc(-c3cc(C#N)c4c(c3)[C@@](C)(CO)CN4)n2)nn1CC(F)F [Compound 197] | – | – | – | – | – | –
7 | 112 nM | 6.8 nM | 20 nM | > 10000 nM | CNC(=O)c1cc(Nc2nccc(-c3cc(C#N)c4c(c3)[C@@](C)(CO)CN4)n2)n(CCC2CC2)n1 [Compound 198] | – | – | – | – | – | –
8 | 1900 nM | 3.5 nM | 25 nM | > 10000 nM | CCn1ncc(Nc2nccc(-c3cc(C#N)c4c(c3)[C@@](C)(CO)CN4)n2)c1N1CCOCC1 [Compound 199] | – | – | – | – | – | –
9 | 339 nM | 4 nM | 25 nM | > 10000 nM | Cn1cc(Nc2nccc(-c3cc(C#N)c4c(c3)[C@@](C)(CO)CN4)n2)c(OCCN2CCOCC2)n1 [Compound 203] | – | – | – | – | – | –
10 | 16 nM | 1.1 nM | 2 nM | ~6030 nM | CC(C)c1nn(CC(F)F)cc1Nc1nccc(-c2cc(C#N)c3c(c2)[C@@](C)(CO)CN3)n1 [Compound 204] | – | – | – | – | – | –
11 | 5 nM | 2.2 nM | 1 nM | ~4900 nM | C[C@]1(CO)CNc2c(C#N)cc(-c3ccnc(Nc4cn(CC(F)F)nc4C4CC4)n3)cc21 [Compound 205] | – | – | – | – | – | –
12 | 48 nM | 2 nM | 4 nM | ~4790 nM | C[C@]1(CO)CNc2c(C#N)cc(-c3ccnc(Nc4cnn(CCN5CCOCC5)c4Cl)n3)cc21 [Compound 208] | – | – | – | – | – | –
13 | 1580 nM | 6.3 nM | 71 nM | > 10000 nM | CC(C)n1nc(C(=O)N2CCCC2)cc1Nc1nccc(-c2cc(C#N)c3c(c2)[C@@](C)(CO)CN3)n1 [Compound 210] | – | – | – | – | – | –
14 | 95 nM | 5.6 nM | 27 nM | > 10000 nM | C[C@]1(CO)CNc2c(C#N)cc(-c3ccnc(Nc4cc(C(=O)N5CCCC5)n(C5CCCC5)n4)n3)cc21 [Compound 213] | – | – | – | – | – | –
15 | 154 nM | 4.6 nM | 11 nM | ~7620 nM | COCCOc1nn(CC(F)F)cc1Nc1nccc(-c2cc(C#N)c3c(c2)[C@@](C)(CO)CN3)n1 [Compound 217] | – | – | – | – | – | –
16 | 38 nM | 2.8 nM | 7 nM | ~7430 nM | C[C@]1(CO)CNc2c(C#N)cc(-c3ccnc(Nc4cn(CC(F)F)nc4OC4CC4)n3)cc21 [Compound 218] | – | – | – | – | – | –
17 | 195 nM | 5.6 nM | 11 nM | > 10000 nM | C[C@]1(CO)CNc2c(C#N)cc(-c3cc(Nc4cn(CC(F)F)nc4C4CCOCC4)ncn3)cc21 [Compound 220] | – | – | – | – | – | –
18 | 2290 nM | 14.8 nM | ~105 nM | > 10000 nM | COC[C@H](O)Cn1ncc(Nc2nccc(-c3cc(C#N)c4c(c3)[C@@](C)(CO)CN4)n2)c1OC [Compound 221] | – | – | – | – | – | –

Row | SMILES | IC50 (JJN-3 cells; [3]) | IC50 [1] | IC50 [2, 4] | IC50 (KMS12-BM cells; [5]) | IC50 (JJN-3 cells; Homo sapiens, JJN-3, 96 h) | IC50 ([2]; Homo sapiens, L-363, read-out: Inhibition of pIKKα_L-363 (IC50 (nM))) | IC50 (KMS12-BM cells; Homo sapiens, KMS-12-BM, 96 h) | IC50 (JJN-3 cells; JJN-3 (NIK translocated) cells, 96 hr, averaged values) | IC50 ([2]; L363 cells, averaged values, read-out: Inhibition of pIKKα_L-363 (IC50 (nM))) | IC50 (KMS12-BM cells; KMS12-BM (NIK WT) cells, 96 hr, averaged values)
19 | C[C@]1(CO)CNc2c(C#N)cc(-c3ccnc(Nc4cnn(CCN5CC6COCC6C5)c4N4CCOCC4)n3)cc21 (some centres unmarked) [Compound 200] | – | 5.9 nM | – | – | 3550 nM | 20 nM | > 10000 nM | – | – | –
20 | CNC(=O)c1cc(Nc2nccc(-c3cc(C#N)c4c(c3)[C@@](C)(CO)CN4)n2)nn1CCC1CC1 [Compound 201] | – | 3.4 nM | – | – | – | – | – | 100 nM | 2 nM | > 10000 nM
